The text below walks through data of US20030069220A1, “METHOD FOR MASS MEDICATION IN BIOLOGICAL ATTACKS” (priority 2001, published 2003).

The conditions of data set [1]: ampicillin dissolved with 95 mole-% sodium carbonate; or aqueous solution of pre-formed salt; cited from earlier work.
For data set [2] the following is noted: in vivo; cited from earlier work.
Data set [3] is described as follows: Dissolution of antibiotic powders (cephalosporin plus citric acid) in water, Example 1. Format: physicochemical. As to the method: The following antibiotic powders were formed without sweeteners and flavorings by addition to clear plastic bags and by working of the bags. The mixtures were added to water in the amounts noted and the conditions of dissolution are noted, as well as the resultant pH or the formed solution. Although Example 1 describes the use of citric acid, various other constituents may be utilized as a […] (e.g., various amino acids).

For `CC1(C)S[C@@H]2[C@H](NC(=O)[C@H](N)c3ccccc3)C(=O)N2[C@H]1C(=O)O` [ampicillin], the “pH of aqueous solution” value in data set [1] is listed as 8.3.

Regarding `CC1=C(C(=O)O)N2C(=O)[C@@H](NC(=O)[C@H](N)c3ccccc3)[C@H]2SC1` [Cephalexin, αaminobenzyl-3-desacetoxycephalosporin], the “absorbed by the body when ingested” value in data set [2] was 90%. Also, in data set [3], the “pH of the formed solution” value is “pH of 3.3” and the “time to form a solution” value is on record as “solution in 5 minutes”.

As to `CC1(C)S[C@@H]2[C@H](NC(=O)[C@H](N)c3ccccc3)C(=O)N2[C@H]1C(=O)[O-].[Na+]` [sodium ampicillin], in data set [1], the “pH of aqueous solution” value is reported as around 9.5.
